Assay results from the supplement of paper PMC11451515.

Test system: SEM cells
Assay: cell viability relative to DMSO control; higher = less cytotoxic
Conditions: 48 h
How it was run: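 Viability values are per-plate percentages of DMSO wells, with background from cell-free wells. Library compounds in DMSO were pin-dosed, in an 11-point threefold series from 47 μM to 0.79 nM, onto NOMO1 or SEM (500 cells/well) or P12-Ichikawa (1000 cells/well) leukemia cells in 1536-well plates (5 μl). Those cells had been adapted for at least four passages in each medium, and CellTiter-Glo One luminescence was read after 48 h at 37°C.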

[1] = HPLM + 10% dialyzed FBS, 0.000781 µM
[2] = HPLM + 10% dialyzed FBS, 0.00234 µM
[3] = HPLM + 10% dialyzed FBS, 0.00702 µM
[4] = HPLM + 10% dialyzed FBS, 0.0211 µM
[5] = HPLM + 10% dialyzed FBS, 0.0632 µM
[6] = HPLM + 10% dialyzed FBS, 0.19 µM
[7] = HPLM + 10% dialyzed FBS, 0.569 µM
[8] = HPLM + 10% dialyzed FBS, 1.71 µM
[9] = HPLM + 10% dialyzed FBS, 5.12 µM
[10] = HPLM + 10% dialyzed FBS, 15.4 µM
[11] = HPLM + 10% dialyzed FBS, 46.1 µM
[12] = RPMI 5 mM glucose + 10% FBS, 0.000781 µM
[13] = RPMI 5 mM glucose + 10% FBS, 0.00234 µM
[14] = RPMI 5 mM glucose + 10% FBS, 0.00702 µM
[15] = RPMI 5 mM glucose + 10% FBS, 0.0211 µM
[16] = RPMI 5 mM glucose + 10% FBS, 0.0632 µM
[17] = RPMI 5 mM glucose + 10% FBS, 0.19 µM
[18] = RPMI 5 mM glucose + 10% FBS, 0.569 µM
[19] = RPMI 5 mM glucose + 10% FBS, 1.71 µM
[20] = RPMI 5 mM glucose + 10% FBS, 5.12 µM
[21] = RPMI 5 mM glucose + 10% FBS, 15.4 µM
[22] = RPMI 5 mM glucose + 10% FBS, 46.1 µM
[23] = RPMI 5 mM glucose + 10% dialyzed FBS, 0.000781 µM
[24] = RPMI 5 mM glucose + 10% dialyzed FBS, 0.00234 µM
[25] = RPMI 5 mM glucose + 10% dialyzed FBS, 0.00702 µM
[26] = RPMI 5 mM glucose + 10% dialyzed FBS, 0.0211 µM
[27] = RPMI 5 mM glucose + 10% dialyzed FBS, 0.0632 µM
[28] = RPMI 5 mM glucose + 10% dialyzed FBS, 0.19 µM
[29] = RPMI 5 mM glucose + 10% dialyzed FBS, 0.569 µM
[30] = RPMI 5 mM glucose + 10% dialyzed FBS, 1.71 µM
[31] = RPMI 5 mM glucose + 10% dialyzed FBS, 5.12 µM
[32] = RPMI 5 mM glucose + 10% dialyzed FBS, 15.4 µM
[33] = RPMI 5 mM glucose + 10% dialyzed FBS, 46.1 µM

Oc1nc(-c2ccc(C(F)(F)F)cc2)nc2c1CSCC2
cell viability [1]: 90.6% | cell viability [2]: 95.7% | cell viability [3]: 107% | cell viability [4]: 50.8% | cell viability [5]: 110% | cell viability [6]: 106% | cell viability [7]: 97.4% | cell viability [8]: 97.8% | cell viability [9]: 91.1% | cell viability [10]: 84.3% | cell viability [11]: 79.6% | cell viability [12]: 101% | cell viability [13]: 102% | cell viability [14]: 92.6% | cell viability [15]: 39.7% | cell viability [16]: 113% | cell viability [17]: 107% | cell viability [18]: 113% | cell viability [19]: 111% | cell viability [20]: 114% | cell viability [21]: 95.6% | cell viability [22]: 86% | cell viability [23]: 97.9% | cell viability [24]: 96.6% | cell viability [25]: 105% | cell viability [26]: 47% | cell viability [27]: 105% | cell viability [28]: 114% | cell viability [29]: 111% | cell viability [30]: 98.3% | cell viability [31]: 93.6% | cell viability [32]: 82.6% | cell viability [33]: 85.2%

COC(=O)C\1=C(C)\N\C(=C(/C1C2=CC=CC3=NON=C23)C(=O)OC(C)C)C (configuration not stated)
cell viability [1]: 105% | cell viability [2]: 98.6% | cell viability [3]: 97.7% | cell viability [4]: 105% | cell viability [5]: 109% | cell viability [6]: 100% | cell viability [7]: 95% | cell viability [8]: 83.6% | cell viability [9]: 110% | cell viability [10]: 90.4% | cell viability [11]: 80.1% | cell viability [12]: 87.2% | cell viability [13]: 96.4% | cell viability [14]: 107% | cell viability [15]: 126% | cell viability [16]: 101% | cell viability [17]: 100% | cell viability [18]: 98.2% | cell viability [19]: 95% | cell viability [20]: 85.5% | cell viability [21]: 88% | cell viability [22]: 78.6% | cell viability [23]: 98.9% | cell viability [24]: 96.9% | cell viability [25]: 104% | cell viability [26]: 110% | cell viability [27]: 111% | cell viability [28]: 114% | cell viability [29]: 114% | cell viability [30]: 95.2% | cell viability [31]: 87.2% | cell viability [32]: 99.2% | cell viability [33]: 70.8%

COc1cc[nH]c2ncc(C(=O)C(=O)N3CCN(C(=O)c4ccccc4)C[C@H]3C)c1-2
cell viability [1]: 89.9% | cell viability [2]: 87.6% | cell viability [3]: 77.4% | cell viability [4]: 90.1% | cell viability [5]: 58.5% | cell viability [6]: 82.6% | cell viability [7]: 92% | cell viability [8]: 96.8% | cell viability [9]: 88.8% | cell viability [10]: 94.2% | cell viability [11]: 109% | cell viability [12]: 115% | cell viability [13]: 109% | cell viability [14]: 112% | cell viability [15]: 116% | cell viability [16]: 74.2% | cell viability [17]: 100% | cell viability [18]: 100% | cell viability [19]: 103% | cell viability [20]: 113% | cell viability [21]: 99.9% | cell viability [22]: 96.9% | cell viability [23]: 118% | cell viability [24]: 109% | cell viability [25]: 129% | cell viability [26]: 115% | cell viability [27]: 84.4% | cell viability [28]: 102% | cell viability [29]: 107% | cell viability [30]: 101% | cell viability [31]: 102% | cell viability [32]: 103% | cell viability [33]: 106%

CCc1ccc(/C=C2/SC(=S)NC2=O)cc1
cell viability [1]: 65.6% | cell viability [2]: 63.5% | cell viability [3]: 87.9% | cell viability [4]: 76.4% | cell viability [5]: 66.2% | cell viability [6]: 64.8% | cell viability [7]: 77.2% | cell viability [8]: 64.8% | cell viability [9]: 80.9% | cell viability [10]: 27.6% | cell viability [11]: 34.5% | cell viability [12]: 78% | cell viability [13]: 89.9% | cell viability [14]: 94% | cell viability [15]: 106% | cell viability [16]: 97% | cell viability [17]: 77.9% | cell viability [18]: 80% | cell viability [19]: 87.2% | cell viability [20]: 74.6% | cell viability [21]: 40.1% | cell viability [22]: 45.4% | cell viability [23]: 79.3% | cell viability [24]: 62.7% | cell viability [25]: 74% | cell viability [26]: 74.2% | cell viability [27]: 69.9% | cell viability [28]: 61% | cell viability [29]: 66.4% | cell viability [30]: 57.3% | cell viability [31]: 58.6% | cell viability [32]: 20.5% | cell viability [33]: 27%

CCCCOCCOc1nc(-c2ccc(C(=O)O)c(F)c2)sc1C
cell viability [1]: 124% | cell viability [2]: 126% | cell viability [3]: 120% | cell viability [4]: 125% | cell viability [5]: 123% | cell viability [6]: 124% | cell viability [7]: 108% | cell viability [8]: 111% | cell viability [9]: 115% | cell viability [10]: 109% | cell viability [11]: 119% | cell viability [12]: 101% | cell viability [13]: 111% | cell viability [14]: 113% | cell viability [15]: 118% | cell viability [16]: 104% | cell viability [17]: 109% | cell viability [18]: 107% | cell viability [19]: 102% | cell viability [20]: 102% | cell viability [21]: 84.5% | cell viability [22]: 106% | cell viability [23]: 105% | cell viability [24]: 113% | cell viability [25]: 108% | cell viability [26]: 122% | cell viability [27]: 121% | cell viability [28]: 111% | cell viability [29]: 116% | cell viability [30]: 120% | cell viability [31]: 97.4% | cell viability [32]: 104% | cell viability [33]: 121%

COc1cccc2c1C(=O)c1c(O)c3c(c(O)c1C2=O)C[C@@](O)(C(=O)CO)C[C@@H]3O[C@H]1C[C@H](N)[C@H](O)[C@H](C)O1
cell viability [1]: 96.4% | cell viability [2]: 103% | cell viability [3]: 117% | cell viability [4]: 124% | cell viability [5]: 105% | cell viability [6]: 92.4% | cell viability [7]: 47.5% | cell viability [8]: 12.9% | cell viability [9]: 6.97% | cell viability [10]: 4.92% | cell viability [11]: 3.63% | cell viability [23]: 106% | cell viability [24]: 100% | cell viability [25]: 108% | cell viability [26]: 92% | cell viability [27]: 101% | cell viability [28]: 69.9% | cell viability [29]: 40.1% | cell viability [30]: 9.78% | cell viability [31]: 5.67% | cell viability [32]: 3.74% | cell viability [33]: 2.82%

COc1ccc2c(c1)CN(C)CC2c1ccc(Cl)c(Cl)c1 (configuration not stated)
cell viability [1]: 78% | cell viability [2]: 104% | cell viability [3]: 121% | cell viability [4]: 102% | cell viability [5]: 122% | cell viability [6]: 109% | cell viability [7]: 133% | cell viability [8]: 117% | cell viability [9]: 126% | cell viability [10]: 117% | cell viability [11]: 58.7% | cell viability [12]: 95.5% | cell viability [13]: 112% | cell viability [14]: 140% | cell viability [15]: 108% | cell viability [16]: 136% | cell viability [17]: 136% | cell viability [18]: 131% | cell viability [19]: 123% | cell viability [20]: 128% | cell viability [21]: 125% | cell viability [22]: 74.5% | cell viability [23]: 89.2% | cell viability [24]: 109% | cell viability [25]: 133% | cell viability [26]: 104% | cell viability [27]: 138% | cell viability [28]: 168% | cell viability [29]: 157% | cell viability [30]: 150% | cell viability [31]: 143% | cell viability [32]: 141% | cell viability [33]: 109%

Cc1cc2c(C(N)=O)cccc2n1-c1nc2c(c(NCc3ccccc3)n1)COCC2
cell viability [1]: 89.6% | cell viability [2]: 95.4% | cell viability [3]: 73% | cell viability [4]: 87.2% | cell viability [5]: 93.5% | cell viability [6]: 93.3% | cell viability [7]: 84.9% | cell viability [8]: 38.7% | cell viability [9]: 3.03% | cell viability [10]: 2.9% | cell viability [11]: 3.03% | cell viability [23]: 94.5% | cell viability [24]: 105% | cell viability [25]: 85.5% | cell viability [26]: 87.7% | cell viability [27]: 101% | cell viability [28]: 99.4% | cell viability [29]: 95.8% | cell viability [30]: 24.1% | cell viability [31]: 3.45% | cell viability [32]: 3.44% | cell viability [33]: 3.1%
